Source: publication PMC10720709, “Design, synthesis, and evaluation of 4-(3-(3,5-dimethylisoxazol-4-yl)benzyl)phthalazin-1(2H)-one derivatives: potent BRD4 inhibitors with anti-breast cancer activity” (Frontiers in Pharmacology, 2023)

Legend:
[1] = target: T1, recombinant BRD4 (BD1 + BD2) (Homo sapiens, UniProt O60885); test: BRD4 TR-FRET activity assay; assay type: binding; details: 1 μmol/L; read-out: BRD4 inhibition rate;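 note: signal rises with BET ligand binding to the bromodomains, so inhibitors lower it, 120 min incubation at room temperature, 1% DMSO, wells lacking ligand as negative control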
T1 construct: employing a recombinant BRD4 (BD1 + BD2) and its corresponding ligand

| inhibition at 1 µM [1] | melting point | SMILES |
| --- | --- | --- |
| 28% | 155 to 156 °C | Cc1cc(C)cc(S(=O)(=O)Nc2cc(Cc3n[nH]c(=O)c4ccccc34)cc(-c3c(C)noc3C)c2)c1 [DDT60] |
| 67% | 202 to 203 °C | CCc1ccc(S(=O)(=O)Nc2cc(Cc3n[nH]c(=O)c4ccccc34)cc(-c3c(C)noc3C)c2)cc1 [DDT62] |
| 51% | 148 to 149 °C | CCCc1ccc(S(=O)(=O)Nc2cc(Cc3n[nH]c(=O)c4ccccc34)cc(-c3c(C)noc3C)c2)cc1 [DDT63] |
| 44% | 154 to 155 °C | Cc1noc(C)c1-c1cc(Cc2n[nH]c(=O)c3ccccc23)cc(NS(=O)(=O)c2ccc(C(C)(C)C)cc2)c1 [DDT65] |
| 59% | 184 to 185 °C | COc1cccc(S(=O)(=O)Nc2cc(Cc3n[nH]c(=O)c4ccccc34)cc(-c3c(C)noc3C)c2)c1 [DDT68] |
| 70% | 155 to 156 °C | COc1ccc(S(=O)(=O)Nc2cc(Cc3n[nH]c(=O)c4ccccc34)cc(-c3c(C)noc3C)c2)cc1 [DDT69] |
| 32% | 165 to 166 °C | COc1ccc(S(=O)(=O)Nc2cc(Cc3n[nH]c(=O)c4ccccc34)cc(-c3c(C)noc3C)c2)cc1OC [DDT70] |
| 4% | 192 to 193 °C | CC(=O)Nc1cccc(S(=O)(=O)Nc2cc(Cc3n[nH]c(=O)c4ccccc34)cc(-c3c(C)noc3C)c2)c1 [DDT72] |
| 34% | 148 to 149 °C | Cc1noc(C)c1-c1cc(Cc2n[nH]c(=O)c3ccccc23)cc(NS(=O)(=O)c2ccc(OCc3ccccc3)cc2)c1 [DDT74] |
| 42% | 162 to 163 °C | Cc1noc(C)c1-c1cc(Cc2n[nH]c(=O)c3ccccc23)cc(NS(=O)(=O)c2ccc3c(c2)CCO3)c1 [DDT75] |
| 38% | 154 to 155 °C | Cc1cccc(CS(=O)(=O)Nc2cc(Cc3n[nH]c(=O)c4ccccc34)cc(-c3c(C)noc3C)c2)c1 [DDT77] |
| 7% | 238 to 239 °C | Cc1noc(C)c1-c1cc(Cc2n[nH]c(=O)c3ccccc23)cc(NS(=O)(=O)c2ccc(O)cc2)c1 [DDT79] |
| 15% | 197 to 198 °C | Cc1noc(C)c1-c1cc(Cc2n[nH]c(=O)c3ccccc23)cc(NS(=O)(=O)c2ccccc2C(F)(F)F)c1 [DDT80] |
| 24% | 193 to 194 °C | Cc1noc(C)c1-c1cc(Cc2n[nH]c(=O)c3ccccc23)cc(NS(=O)(=O)c2ccc(C(F)(F)F)cc2)c1 [DDT82] |
| 7% | 151 to 152 °C | Cc1noc(C)c1-c1cc(Cc2n[nH]c(=O)c3ccccc23)cc(NS(=O)(=O)c2ccc(F)cc2)c1 [DDT86] |
| 72% | 174 to 175 °C | Cc1noc(C)c1-c1cc(Cc2n[nH]c(=O)c3ccccc23)cc(NS(=O)(=O)c2ccccc2Cl)c1 [DDT87] |
| 17% | 142 to 143 °C | Cc1noc(C)c1-c1cc(Cc2n[nH]c(=O)c3ccccc23)cc(NS(=O)(=O)c2cccc(Cl)c2)c1 [DDT88] |
| 72% | 147 to 148 °C | Cc1noc(C)c1-c1cc(Cc2n[nH]c(=O)c3ccccc23)cc(NS(=O)(=O)c2ccc(Cl)cc2)c1 [DDT89] |
| 8% | 171 to 172 °C | Cc1noc(C)c1-c1cc(Cc2n[nH]c(=O)c3ccccc23)cc(NS(=O)(=O)c2ccccc2Br)c1 [DDT91] |
| 4% | 147 to 148 °C | Cc1noc(C)c1-c1cc(Cc2n[nH]c(=O)c3ccccc23)cc(NS(=O)(=O)c2cccc(Br)c2)c1 [DDT92] |
| 5% | 243 to 244 °C | Cc1noc(C)c1-c1cc(Cc2n[nH]c(=O)c3ccccc23)cc(NS(=O)(=O)c2cccc(S(C)(=O)=O)c2)c1 [DDT94] |
